≈ marks a conversion by molar mass, not a printed value.

Data set [1] concerns the target T1, human RXFP1 (Homo sapiens, UniProt Q9HBX9).
T1 sequence (Q9HBX9 1-757): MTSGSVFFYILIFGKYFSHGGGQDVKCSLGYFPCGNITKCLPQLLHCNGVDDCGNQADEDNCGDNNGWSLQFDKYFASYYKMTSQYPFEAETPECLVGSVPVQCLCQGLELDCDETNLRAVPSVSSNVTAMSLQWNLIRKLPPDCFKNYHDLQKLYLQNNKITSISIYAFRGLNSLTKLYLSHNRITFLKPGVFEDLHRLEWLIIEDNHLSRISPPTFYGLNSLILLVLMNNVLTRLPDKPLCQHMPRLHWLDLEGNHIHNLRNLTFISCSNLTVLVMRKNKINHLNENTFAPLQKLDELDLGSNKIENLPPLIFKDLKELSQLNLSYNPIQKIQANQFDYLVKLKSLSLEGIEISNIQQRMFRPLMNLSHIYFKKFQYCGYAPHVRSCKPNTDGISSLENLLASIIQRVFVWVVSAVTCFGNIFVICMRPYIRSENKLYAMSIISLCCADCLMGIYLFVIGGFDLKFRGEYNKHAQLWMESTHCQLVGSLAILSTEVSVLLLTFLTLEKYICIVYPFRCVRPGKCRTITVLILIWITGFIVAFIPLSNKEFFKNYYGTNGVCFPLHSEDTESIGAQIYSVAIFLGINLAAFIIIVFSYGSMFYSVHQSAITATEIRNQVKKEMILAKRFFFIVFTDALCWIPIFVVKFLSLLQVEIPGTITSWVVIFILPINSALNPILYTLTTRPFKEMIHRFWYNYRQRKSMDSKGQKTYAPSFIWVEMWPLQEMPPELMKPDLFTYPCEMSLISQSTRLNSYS
Kind of data set: Human RXFP1 cGMP Production Assay (Test G). The class given is cell-based. More on the design: expressed in transfected cells. Particulars: HEK293s cells stably transfected with human RXFP1; Green GENIe cGMP biosensor, area under curve 0 to 90 min. The text has this: Human RXFP1 cGMP Production Assay (Test G)
To profile compounds for RXFP1 agonist activity with respect to cGMP production, the Green GENIe cGMP Assay (Montana Molecular; catalogue number D800G) was employed. The assay is based on an nmNeonGreen fusion protein fluorescent biosensor delivered to mammalian cells in a BacMam vector. Fluorescence is reduced when cGMP is bound to the biosensor.
(§1) Cells: HEK293s cells stably transfected with human RXFP1 in pIRESneo3 was employed.
Day 1 • 1. Cells were splitted one day ahead of transduction and seeded to 63 000 cells/cm2 in DMEM medium with 10% FBS without antibiotics in a tissue culture flask.
Day 2 • 2. […] A viral transduction mastermix was prepared by mixing reagents in the following proportions for a single well: • 6 μL GENIe BacMAM vector • 0.2 μL 500 mM sodium butyrate • 13.8 μL DMEM medium with 10% FBS • 20 μL total volume • 5. Cells and transduction mastermix were mixed in proportions 30 μL cells and 20 μL mastermix for a single well. • 6. […] Plate was incubated in the dark at 37° C., 5% CO2 for 24 h.
Day 3 • 8. Medium was removed from plates using a Bluewasher (BluCatBio). • 9. 20 μL assay buffer was added with a Multidrop Combi (ThermoFisher). • 10. Plate was incubated in the dark at room temperature for 30 min prior to assaying. • 11. Plates were assayed using a FLIPR Tetra (Molecular Devices): 10 μL compound diluted with assay buffer was added to each well by the FLIPR Tetra and measuring green fluorescence over time for up to 3 h.
Data was processed using Screener software (Genedata A G). After subtraction of background fluorescence (before addition of compounds), area under curve values from 0 to 90 min after compound addition was used for calculation of responses.

Data set [2] deals with T1, human RXFP1. The data set is described as follows: Human RXFP1 Phospho-ERK Assay (Test H). Format: cell-based. More on the design: expressed in transfected cells. Particulars: HEK293s cells stably transfected with human RXFP1; phospho-ERK (Thr202/Tyr204) HTRF, 5 min stimulation; read-out: Test H phospo-ERK assay EC50.
Description: as §1
In general terms: Time-resolved FRET reads energy transfer from a long-lived donor to a nearby acceptor.

A further data set in a line: Solubility (Test F). The class given is physicochemical. Particulars: arithmetic mean if run multiple times. The protocol:
The assay was conducted according to the Solubility Assay described in pages 164-167 of Wernevik, J. et al., “A Fully Integrated Assay Panel for Early Drug Metabolism and Pharmacokinetics Profiling”, Assay and Drug Development Technologies, 2020, 18(4), 157-179. Data are reported in Table 36 as solubility ([…]. Where the assay was run multiple times for the same compound, the arithmetic mean is reported.

For the compound `COc1cc(F)c(-c2ccc(C(=O)O)cc2)cc1C(=O)N[C@H]1[C@@H](C(=O)Nc2cccc(S(=O)(=O)C(F)(F)F)c2)[C@@H]2C=C[C@H]1C2` (single isomer, unassigned) [Example 552], the concentration for a half-maximal effect (EC50) – broadly, the concentration needed to bring the measured effect to its halfway point – on human RXFP1 [1] stood at 300 nM; at human RXFP1 [2] it was 81 nM. The solubility (in general, how much of the substance goes into solution per volume) in the data set “Solubility (Test F)” was > 1000 µM.
In turn, `COc1cc(F)c(O[C@H]2CC[C@@H](C(=O)O)CC2)cc1C(=O)N[C@@H]1[C@H]2CC[C@H](C2)[C@@H]1C(=O)Nc1ccc(F)c(S(F)(F)(F)(F)F)c1` [Example 433] yielded an EC50 on human RXFP1 [1] of 19 nM. Further, the solubility in the data set “Solubility (Test F)” is 240 µM (≈ 160 µg/mL).
Regarding `COc1cc(F)c(O[C@H]2CC[C@@](C)(C(=O)O)CC2)cc1C(=O)N[C@@H]1[C@H]2CC[C@H](C2)[C@@H]1C(=O)Nc1ccc(F)c(S(F)(F)(F)(F)F)c1` [Example 353], the EC50 at human RXFP1 [1] was 3.7 nM; on human RXFP1 [2], 0.36 nM. This compound showed a solubility in the data set “Solubility (Test F)” of 45 µM (≈ 30.7 µg/mL).
Turning to `COc1cc(F)c(O[C@H]2CC[C@@](C)(C(=O)O)CC2)cc1C(=O)N[C@@H]1[C@H]2CC[C@H](C2)[C@@H]1C(=O)Nc1cccc(S(=O)(=O)C(F)(F)F)c1` [Example 208, (1S,4s)-4-(2-Fluoro-4-methoxy-5-(((1S,2R,3S,4R)-3-((3-((trifluoromethyl)sulfonyl)phenyl)carbamoyl)bicyclo[2.2.1]heptan-2-yl)carbamoyl)phenoxy)-1-methylcyclohexane-1-carboxylic acid], the EC50 at human RXFP1 [1] came to 9.3 nM; on human RXFP1 [2] it was 1.2 nM. Also, in “Solubility (Test F)”, the concentration in solution (solubility) came to 130 µM (≈ 87.2 µg/mL).

(Values after US11667602B2, “Compounds and their use” (AstraZeneca AB, priority 2020, dated 2023).)
